Experimental data from patent publication US9974800B2 (priority 2014, dated 2018).

Test system: Ebola virus
Type: cell-based
Conditions: alone

## CC[C@H]1OC(=O)[C@H](C)[C@@H](O[C@H]2C[C@@](C)(OC)[C@@H](O)[C@H](C)O2)[C@H](C)[C@@H](O[C@@H]2O[C@H](C)C[C@H](N(C)C)[C@H]2O)[C@](C)(OC)C[C@@H](C)C(=O)[C@H](C)[C@@H](O)[C@]1(C)O [Clarithromycin]
  inhibit EBOV infection in primary macrophages: can inhibit EBOV infection
